{"source": "patent US12065622B2", "about": "“Ammonium-based ionic liquid and its use as a lubricant additive” (TOTALENERGIES ONETECH, priority 2020, dated 2024)", "test": "Base number (TBN) according to ASTM D2896", "type": "physicochemical", "conditions": "neat ionic liquid", "method": "An oil's neutralization capacity is measured by its BN or Base Number, characterized by its basicity. It is measured according to standard ASTM D-2896 and is expressed as an equivalent in milligrams of potash per gram of oil (also called “mg of KOH/g” or “BN point”). The BN is a standard criterion making it possible to adjust the basicity of the cylinder oils to the sulphur content of the fuel oil used, in order to be able to neutralize all of the sulphur contained in the fuel, and capable of being converted to sulphuric acid by combustion and hydrolysis."}
{"substance": "Tri-n-Octylmethylammonium 2-Ethylhexanoate [IL1]", "values": [{"measurement": "base number", "result": 114, "unit": "mg KOH/g"}]}
